Data from patent publication US20180271888A1, “COMPOSITIONS AND METHODS FOR PARKINSON'S DISEASE THERAPY” (priority 2017, published 2018).
Where two headings read alike, the source gives them in different places.

Legend:
[1] = test system: WT and P2X4R KO mice; test: Prepulse inhibition (PPI) of acoustic startle reflex; format: in vivo, mouse
Protocol: Acoustic startle reflex and PPI were tested as previously described (Wyatt, L. R. et al. (2013) Neuropsychopharmacology 38:1993-2002). The apparatus used for detection of startle reflex (San Diego Instruments, San Diego, Calif., USA) consisted of a standard cage placed in sound attenuated chambers with fan ventilation. Each cage consisted of a Plexiglass cylinder of 3 cm diameter, mounted on piezoelectric accelerometric platform connected to an analog-digital converter. Background noise and acoustic bursts were conveyed by two separate speakers, each one oriented appropriately so as to produce a variation in sound within 1 dB across the startle cage. Both speakers and startle cages were connected to the main PC, which detected and analyzed all chamber variables with Startle software (San Diego Instruments). Before each testing session, acoustic stimuli were calibrated via a digital sound level meter.
During the baseline session, mice were exposed to background noise of 70 dB and, after an acclimatization period of 5 min, were presented with 12 40 ms trials of 115 dB interposed with three trials of a 82 dB pre-stimulus preceding the 115 dB by 100 ms. […] Delta PPI (APPI) was calculated as mean startle amplitude for pulse alone trials—(mean startle amplitude for prepulse trial). […]
(§1) For the western blotting analysis, the average of densitometry values of WT striatal samples was used to arbitrarily normalize WT samples to 1 and the P2X4R KO striatal samples were normalized by dividing each densitometry value by the average of WT samples. […] Normalized density of proteins was expressed as mean±SEM. Phosphorylation was calculated as ratio of normalized values of phosphorylated form to total form of protein. DA levels were expressed as ng/mg of protein content. […] Pharmacological studies for motor behavior and sensorimotor gating were analyzed by two-way repeated measures ANOVA with time/PPI intensity and genotype/treatment as within and between-subjects variability, respectively, followed by Bonferroni post hoc test for multiple comparisons. […]

[2] = test system: 6-OHDA lesioned WT and P2X4R KO mice; test: L-DOPA-induced rotational behavior in the 6-OHDA model of DA depletion (Example 1); format: in vivo, mouse
Protocol: Mice were treated with desipramine hydrochloride (25 mg/kg, i.p.) (Sigma-Aldrich) 30 min prior to surgery to prevent concurrent damage of noradrenergic pathways by 6-OHDA. Mice were anesthetized with avertin ([…], i.p.) and placed in the stereotaxic apparatus. Two μL of freshly prepared 6-OHDA bromide salt (4 mg/mL in 0.2% ascorbic acid and 0.9% saline; Sigma-Aldrich) was unilaterally infused into left median forebrain bundle (from Bregma point: 1.2 mm posterior, 1.1 mm lateral, 5 mm ventral) (Franklin, B. J. and Paxinos, G. (2007) The Mouse Brain in Stereotaxic Coordinates. Elsevier Academic Press, Amsterdam) at a rate of 0.5 μL/min using a 10 μL Hamilton syringe and a microlitre syringe pump. The injection cannula was left in place for 3-5 min to prevent reflux and ensure complete absorption. Post-operative procedures involved daily subcutaneous (s.c.) injections with sucrose (5% w/v in saline) and warming on a heating pad for 2 weeks.
Mice were subjected to behavioral testing 3 weeks after 6-OHDA lesioning surgery. Mice were placed in a plastic cylinder (318 mm in diameter) with a video camera mounted above it. Baseline rotational behavior was established by saline injections which causes the mouse to rotate toward the lesioned side with lesser DA activity (ipsilateral rotations). L-DOPA (5 mg/kg, s.c.) was administered 5 min prior to behavioral testing and the number of contralateral and ipsilateral rotations were counted in every 10-minute interval for a total period of 90 min.
For the western blotting analysis, the average of densitometry values of WT striatal samples was used to arbitrarily normalize WT samples to 1 and the P2X4R KO striatal samples were normalized by dividing each densitometry value by the average of WT samples. Normalization of the two genotypes was done within the same membrane and presented as fold change of P2X4R KO versus WT in that membrane. For D1, D2, DARPP-32, ERK 1/2, and CREB immunoblotting; WT and P2X4R KO mice were generated in separate cohorts. The normalization of P2X4R KO to WT samples was done within the same cohort followed by combining data from two cohorts for analyses. […] Normalized density of proteins was expressed as mean±SEM. Phosphorylation was calculated as ratio of normalized values of phosphorylated form to total form of protein. DA levels were expressed as ng/mg of protein content. Unpaired Student t-test was used for analyzing the differences in protein densities and DA levels between WT and P2X4R KO groups. […] Pharmacological studies for motor behavior and sensorimotor gating were analyzed by two-way repeated measures ANOVA with time/PPI intensity and genotype/treatment as within and between-subjects variability, respectively, followed by Bonferroni post hoc test for multiple comparisons. Significance was set at p<0.05. All data were analyzed using GraphPad Prism software (San Diego, Calif., USA).

[3] = cited from earlier work
[4] = test system: TH; test: TH expression in striatum after 6-OHDA lesioning; format: in vivo, mouse; conditions: 6-OHDA 4 mg/mL, 2 μL unilateral, lesioned vs unlesioned side
Protocol: (§2) Protein samples of 50 lg ran on 10% sodium dodecyl sulfate-polyacrylamide gel electrophoresis gels and transferred onto polyvinylidine diflouride membranes using semi-dry transfer method (Trans turbo blot; BioRad Laboratories, Hercules, Calif., USA). Striatal samples from WT and P2X4R KO mice were made to run on the same gel and transferred onto the same membrane. Nonspecific binding was blocked by incubation in 5% non-fat dry milk, followed by incubation with primary antibodies overnight at 4° C. The antibodies used were rabbit anti-TH (1:5000), mouse anti-DAT (1:1000), rabbit anti-D2 receptor (1:1000), rabbit anti-DARPP-32 (1:1000) (Millipore), rabbit anti-D1 receptor (1:500; SantaCruz biotechnology, Santacruz, Calif., USA), mouse anti-total ERK 1/2 (1:1000), rabbit anti-total CREB (1:1000) (Cell Signaling Technology, Beverly, Mass., USA), mouse anti-β-actin (1:20 000; Sigma-Aldrich), and mouse anti-α-tubulin (1:10 000; Millipore). The antibodies for phospho proteins included rabbit antiphospho-Thr34-DARPP-32 (1:400; Millipore), rabbit anti-phospho-Ser133-CREB (1:500), rabbit anti-diphospho-Thr202/Tyr204-ERK 1/2 (1:500) (Cell Signaling Technology). Secondary antibodies included goat anti-mouse and goat anti-rabbit antibodies (1:10 000; BioRad Laboratories). […] Protein quantification was carried out by optical densitometry using ImageJ software (NIH, Bethesda, Md., USA). […]

[5] = test system: DARPP-32; test: Western immunoblotting of total and phosphorylated DARPP-32 in striatum after IVM; format: in vivo, mouse
Protocol: (§3) The dorsal and ventral striata were dissected from P2X4R KO and WT mice following killing with CO2 asphyxiation. […] The dorsal and ventral striata were dissected out as per the neuroanatomical landmarks described in the mouse brain atlas (Franklin, B. J. and Paxinos, G. (2007) The Mouse Brain in Stereotaxic Coordinates. Elsevier Academic Press, Amsterdam). The brain tissues were homogenized in a buffer containing 50 mM Tris-HCl pH (8.0), 150 mM NaCl, 1 mM EDTA, 0.1% sodium dodecyl sulfate, 1/100 dilution proteinases inhibitor cocktail (Millipore, Temecula, Calif., USA), and protein content was determined using bicinchoninic acid assay kit (Thermo Scientific, Rockford, Ill., USA). Homogenates were treated with a cocktail of phosphatase inhibitors (1 mM sodium pyrophosphate, 10 mM sodium fluoride, 0.5 mM sodium orthovandate, 10 mM β-glycerol phosphate, 1 μM microcysteine LR) (Sigma-Aldrich) for detection of phosphoproteins.
Protein samples of 50 lg ran on 10% sodium dodecyl sulfate-polyacrylamide gel electrophoresis gels and transferred onto polyvinylidine diflouride membranes using semi-dry transfer method (Trans turbo blot; BioRad Laboratories, Hercules, Calif., USA). Striatal samples from WT and P2X4R KO mice were made to run on the same gel and transferred onto the same membrane. Nonspecific binding was blocked by incubation in 5% non-fat dry milk, followed by incubation with primary antibodies overnight at 4° C. The antibodies used were rabbit anti-TH (1:5000), mouse anti-DAT (1:1000), rabbit anti-D2 receptor (1:1000), rabbit anti-DARPP-32 (1:1000) (Millipore), rabbit anti-D1 receptor (1:500; SantaCruz biotechnology, Santacruz, Calif., USA), mouse anti-total ERK 1/2 (1:1000), rabbit anti-total CREB (1:1000) (Cell Signaling Technology, Beverly, Mass., USA), mouse anti-β-actin (1:20 000; Sigma-Aldrich), and mouse anti-α-tubulin (1:10 000; Millipore). The antibodies for phospho proteins included rabbit antiphospho-Thr34-DARPP-32 (1:400; Millipore), rabbit anti-phospho-Ser133-CREB (1:500), rabbit anti-diphospho-Thr202/Tyr204-ERK 1/2 (1:500) (Cell Signaling Technology). Secondary antibodies included goat anti-mouse and goat anti-rabbit antibodies (1:10 000; BioRad Laboratories). Bands were visualized using chemiluminescence method (Clarity western plus enhanced chemiluminescence substrate; BioRad Laboratories) followed by exposure to HyBlot autoradiography films (Denville Scientific, Metuchen, N.J., USA). Protein quantification was carried out by optical densitometry using ImageJ software (NIH, Bethesda, Md., USA). Protein densities were normalized to β-actin or α-tubulin levels.
as §1

[6] = test system: ERK 1/2; test: Western immunoblotting of total and phosphorylated ERK 1/2 in striatum after IVM; format: in vivo, mouse
Protocol: as §3
as §2, with “Millipore).” for “Millipore). The antibodies for phospho proteins included rabbit antiphospho-Thr34-DARPP-32 (1:400; Millipore), rabbit anti-phospho-Ser133-CREB (1:500), rabbit anti-diphospho-Thr202/Tyr204-ERK 1/2 (1:500) (Cell Signaling Technology). Secondary antibodies included goat anti-mouse and goat anti-rabbit antibodies (1:10 000; BioRad Laboratories).”
as §1

[7] = test system: CREB; test: Western immunoblotting of total and phosphorylated CREB in striatum after IVM; format: in vivo, mouse; conditions: effect of IVM treatment 5 mg/kg
Protocol: as §3
as §2, with “Millipore).” for “Millipore). The antibodies for phospho proteins included rabbit antiphospho-Thr34-DARPP-32 (1:400; Millipore), rabbit anti-phospho-Ser133-CREB (1:500), rabbit anti-diphospho-Thr202/Tyr204-ERK 1/2 (1:500) (Cell Signaling Technology). Secondary antibodies included goat anti-mouse and goat anti-rabbit antibodies (1:10 000; BioRad Laboratories).”
as §1

[8] = test system: WT and P2X4R KO mice; conditions: Bortolato et al. 2013, cited from earlier work
[9] = ventral striatum, main effect of IVM treatment 5 mg/kg, treatment×genotype interaction significant (p<0.05)
[10] = ventral striatum, effect of IVM treatment 5 mg/kg

CCN1CCC[C@H]1CNC(=O)c1c(O)c(Cl)cc(Cl)c1OC [raclopride]
PPI of acoustic startle reflex ([1]; P2X4R KO mice vs saline, SCH-23390 1 mg/kg i.p. or raclopride 3 mg/kg i.p., 10 min prior, significant at PPI 6 and PPI 12): significantly enhanced
startle amplitude ([1]; P2X4R KO mice, SCH-23390 1 mg/kg or raclopride 3 mg/kg): without any changes
PPI function ([1]; WT mice, SCH-23390 1 mg/kg or raclopride 3 mg/kg i.p.): no significant changes

N[C@@H](Cc1ccc(O)c(O)c1)C(=O)O [L-DOPA, L-3,4-didhydrophenylalanine]
rotational behavior with L-DOPA treatment ([2]; L-DOPA 5 mg/kg s.c., 6-OHDA lesioned WT and P2X4R KO mice): exhibited contralateral rotations
L-DOPA-induced contralateral turns, P2X4R KO compared to WT mice ([2]; L-DOPA 5 mg/kg, significant during the 45-55 min interval): significantly fewer

C[C@@](Cc1ccc(O)c(O)c1)(NN)C(=O)O.O [Carbidopa, N-amino-α-methyl-3-hydroxy-L-tyrosine monohydrate]
solubility in water [3]: slightly soluble

NCCc1cc(O)c(O)cc1O [6-OHDA, 6-hydroxydopamine]
reduced TH expression in the striatum ([4]; P2X4R KO mice): 96.3%
reduced TH expression in the striatum ([4]; WT mice): 95.7%

CC[C@H](C)[C@H]1O[C@]2(CC[C@@H]1C)C[C@@H]1C[C@@H](C/C=C(\C)[C@@H](O[C@H]3C[C@H](OC)[C@@H](O[C@H]4C[C@H](OC)[C@@H](O)[C@H](C)O4)[C@H](C)O3)[C@@H](C)/C=C/C=C3\CO[C@@H]4[C@H](O)C(C)=C[C@@H](C(=O)O1)[C@]34O)O2 [IVM, ivermectin]
DARPP-32 phosphorylation ([5]; dorsal striatum, P2X4R KO mice, IVM 5 mg/kg i.p., 8 h post-drug): did not increase
DARPP-32 phosphorylation ([5]; dorsal striatum, WT mice, IVM 5 mg/kg i.p., 8 h post-drug, vs vehicle, Bonferroni p<0.05): significant increase
total DARPP-32 levels ([5]; dorsal striatum, main effect of IVM treatment (5 mg/kg i.p.), treatment×genotype interaction significant): no significant effect
DARPP-32 phosphorylation [5, 9]: no significant effect
total DARPP-32 levels [5, 9]: no significant effect
ERK 1/2 phosphorylation ([6]; dorsal striatum, IVM 5 mg/kg, both genotypes (independent of P2X4R function)): increased
total ERK 1/2 levels ([6]; dorsal striatum, main effect of IVM treatment, treatment×genotype interaction significant): no significant effect
ERK 1/2 phosphorylation [6, 10]: no significant effect
total ERK 1/2 levels [6, 10]: no significant effect
CREB phosphorylation ([7]; dorsal striatum): no significant effect
total CREB levels ([7]; dorsal striatum): no significant effect
total CREB levels ([7]; ventral striatum): no significant effect
CREB phosphorylation ([7]; ventral striatum, interaction trended toward significance): no significant effect
L-DOPA induced motor behavior (contralateral rotations) ([2]; 6-OHDA P2X4R KO mice, IVM 5 mg/kg + L-DOPA 5 mg/kg vs L-DOPA alone, during the 5-15 min interval): significant increase
number of L-DOPA-induced rotations (contralateral) ([2]; 6-OHDA WT mice, IVM 5 mg/kg i.p. 8 h prior + L-DOPA 5 mg/kg s.c. vs L-DOPA alone, significant 5-65 min): significantly increased
rotations induced by IVM alone (ipsilateral) ([2]; 6-OHDA WT mice, IVM 5 mg/kg i.p. 8 h prior, average for 2 hours, SEM ±2, significant vs sham controls): 12 rotations
PPI (effect of IVM) ([8]; P2X4R KO mice): attenuated response
PPI (effect of IVM) ([8]; WT C57BL/6J mice): PPI disruption
